What all share (assay): Pot test on the foliar application (post-emergence treatment of weeds)
Assay type in all cases: in vivo
Holding throughout (details): day 10

One experiment relates to Digitaria adscendens. Here is the method: (§1) Field soil was packed in a 350 cm^2 plastic pot and seeds of Echinochloa utilis, Digitaria adscendens, Avena fatua, Amaranthus viridis, Chenopodium album and Ipomoea purpurea were sown and covered with soil of about 1 cm thickness. After water absorption and at day 25 after the seeding, sugi-refined oil diluted with a stock solution or water was sprayed uniformly in a spray volume of 200 ml per 1 m^2. The test was performed in a glass greenhouse at a temperature of from 18 to 30° C., and the soil was appropriately moistened from the bottom side.
(§2) Using each of the oily extracts obtained in Preparation Example 2, a flowable (emulsion) formulation was prepared according to Preparation Example 2. The herbicidal activity in the post-emergence stage was evaluated by the method according to Test Example 3 except that the dilution ratio of the spray solution with water was fixed to 4-fold dilution.
(§3) Using the liquid formulation prepared in Formulation Example 3, the herbicidal activity in the post-emergence stage was evaluated by the method according to Test Example 3 except that the test was conducted under a fixed condition that the solution was used as a stock solution without being diluted with water. Also, a formulation using water as a substitute of an oily extract, i.e. a formulation containing sodium bicarbonate only was prepared for comparison, and its herbicidal effect was evaluated as a comparative example. The formulation was sprayed uniformly in a spray volume of 200 ml per 1 m^2.
as §3, with “4,” for “3,”, “treatment of weeds” for “stage”, “calcium borate” for “sodium bicarbonate”
as §3, with “5,” for “3,”, “treatment of weeds” for “stage”, “d-limonene” for “sodium bicarbonate”
(§4) Using these essential oils, a flowable (emulsion) formulation was prepared according to Formulation Example 2. The herbicidal activity in the post-emergence treatment of weeds was evaluated by the method according to Test Example 3 except that the dilution ratio of the spray solution with water was fixed to 2-fold dilution.

A further experiment relates to Chenopodium album. The protocol:
as §1, §2, §3
as §3, with “4,” for “3,”, “treatment of weeds” for “stage”, “calcium borate” for “sodium bicarbonate”
as §3, with “5,” for “3,”, “treatment of weeds” for “stage”, “d-limonene” for “sodium bicarbonate”
as §4

The next experiment relates to Echinochloa utilis. Here is the method: as §1, §2, §3
as §3, with “4,” for “3,”, “treatment of weeds” for “stage”, “calcium borate” for “sodium bicarbonate”
as §3, with “5,” for “3,”, “treatment of weeds” for “stage”, “d-limonene” for “sodium bicarbonate”
as §4

A further experiment has as its system Ipomoea purpurea. The protocol: as §1, §2, §3
as §3, with “4,” for “3,”, “treatment of weeds” for “stage”, “calcium borate” for “sodium bicarbonate”
as §3, with “5,” for “3,”, “treatment of weeds” for “stage”, “d-limonene” for “sodium bicarbonate”
as §4

For the next experiment, the system named is Amaranthus viridis. The protocol:
as §1, §2, §3
as §3, with “4,” for “3,”, “treatment of weeds” for “stage”, “calcium borate” for “sodium bicarbonate”
as §3, with “5,” for “3,”, “treatment of weeds” for “stage”, “d-limonene” for “sodium bicarbonate”
as §4

A further experiment has as its system Avena fatua. Here is the method: as §1, §2, §3
as §3, with “4,” for “3,”, “treatment of weeds” for “stage”, “calcium borate” for “sodium bicarbonate”
as §3, with “5,” for “3,”, “treatment of weeds” for “stage”, “d-limonene” for “sodium bicarbonate”
as §4

Where [1] appears, read: undiluted liquid formulation 200 ml/m^2, per 1 m^2: 20 ml of the essential oil and 20 ml of d-limonene.
Where [2] appears, read: undiluted liquid formulation 200 ml/m^2, per 1 m^2: 20 ml of the essential oil and 12 g of sodium bicarbonate.
Setting [3] is: undiluted liquid formulation 200 ml/m^2, per 1 m^2: 20 ml of the essential oil and 12 g of calcium borate.

Consider `C=C(C)[C@H]1CC=C(C)CC1` [Comparative Example (d-limonene only), d-limonene], for which the “Herbicidal activity Digitaria adscendens” value in the experiment with Digitaria adscendens (setting [1]) is 7 (66 to 75%). Further, the “Herbicidal activity Chenopodium album” value with Chenopodium album (setting [1]) was 6 (56 to 65%). Moreover, the “Herbicidal activity Echinochloa utilis” value in the experiment on Echinochloa utilis (setting [1]) is given as 5 (46 to 55%). In addition, in the experiment with Ipomoea purpurea (setting [1]), the “Herbicidal activity Ipomoea purpurea” value is on record as 4 (36 to 45%). Also, in the experiment with Amaranthus viridis (setting [1]), the “Herbicidal activity Amaranthus viridis” value is 6 (56 to 65%). Also, in the experiment on Avena fatua (setting [1]), the “Herbicidal activity Avena fatua” value is reported as 5 (46 to 55%).

`O=C([O-])O.[Na+]` [sodium bicarbonate]: the “Herbicidal activity Digitaria adscendens” value in the experiment on Digitaria adscendens (setting [2]) is on record as 4 (36 to 45%). In addition, the “Herbicidal activity Chenopodium album” value in the experiment with Chenopodium album (setting [2]) is listed as 4 (36 to 45%). Moreover, the “Herbicidal activity Echinochloa utilis” value with Echinochloa utilis (setting [2]) is 3 (26 to 35%). For the same compound, the “Herbicidal activity Ipomoea purpurea” value in the experiment on Ipomoea purpurea (setting [2]) is 2 (16 to 25%). The “Herbicidal activity Amaranthus viridis” value in the experiment on Amaranthus viridis (setting [2]) is 3 (26 to 35%). Further, the “Herbicidal activity Avena fatua” value in the experiment on Avena fatua (setting [2]) is on record as 4 (36 to 45%).

As to calcium borate, the “Herbicidal activity Digitaria adscendens” value in the experiment with Digitaria adscendens (setting [3]) is 4 (36 to 45%). Also, the “Herbicidal activity Chenopodium album” value in the experiment with Chenopodium album (setting [3]) is recorded as 4 (36 to 45%). Also, in the experiment with Echinochloa utilis (setting [3]), the “Herbicidal activity Echinochloa utilis” value is 4 (36 to 45%). The “Herbicidal activity Ipomoea purpurea” value in the experiment on Ipomoea purpurea (setting [3]) is 3 (26 to 35%). The “Herbicidal activity Amaranthus viridis” value with Amaranthus viridis (setting [3]) is 4 (36 to 45%). In the experiment on Avena fatua (setting [3]), the “Herbicidal activity Avena fatua” value was 5 (46 to 55%).

The values above are taken from patent publication US20140323304A1, “HERBICIDE COMPOSITION AND WEED CONTROL METHOD” (SDS BIOTECH K.K., priority 2008, published 2014).
